Patent US20030225007A1, “Sulfonamide derivatives of 3-substituted imidazol[1,2-d]-1,2,4-thiadiazoles and 3-substituted-[1,2,4] thiadiazolo[4,5-a] benzimidazole as inhibitors of fibrin cross-linking and transglutaminases” (Apotex Inc., priority 2002, published 2003)
Values joined by “and” are separate entries in the source; they are usually repeats but may differ in a detail not shown here. Identical values can stand only once. Like-named read-outs stand apart in the source and are kept apart here.

Experiments:
Guinea pig liver TGase = molecular target: T1, Guinea pig liver TGase (Cavia cutleri, UniProt P08587); experiment: Enzyme selectivity: inactivation of tissue type transglutaminase; assay type: biochemical; settings: 5-min incubation at 37° C. in the absence of substrate
T1 construct: Guinea pig liver TGase; from tissue; host or cells: guinea pig liver
T1 sequence (P08587 2-690): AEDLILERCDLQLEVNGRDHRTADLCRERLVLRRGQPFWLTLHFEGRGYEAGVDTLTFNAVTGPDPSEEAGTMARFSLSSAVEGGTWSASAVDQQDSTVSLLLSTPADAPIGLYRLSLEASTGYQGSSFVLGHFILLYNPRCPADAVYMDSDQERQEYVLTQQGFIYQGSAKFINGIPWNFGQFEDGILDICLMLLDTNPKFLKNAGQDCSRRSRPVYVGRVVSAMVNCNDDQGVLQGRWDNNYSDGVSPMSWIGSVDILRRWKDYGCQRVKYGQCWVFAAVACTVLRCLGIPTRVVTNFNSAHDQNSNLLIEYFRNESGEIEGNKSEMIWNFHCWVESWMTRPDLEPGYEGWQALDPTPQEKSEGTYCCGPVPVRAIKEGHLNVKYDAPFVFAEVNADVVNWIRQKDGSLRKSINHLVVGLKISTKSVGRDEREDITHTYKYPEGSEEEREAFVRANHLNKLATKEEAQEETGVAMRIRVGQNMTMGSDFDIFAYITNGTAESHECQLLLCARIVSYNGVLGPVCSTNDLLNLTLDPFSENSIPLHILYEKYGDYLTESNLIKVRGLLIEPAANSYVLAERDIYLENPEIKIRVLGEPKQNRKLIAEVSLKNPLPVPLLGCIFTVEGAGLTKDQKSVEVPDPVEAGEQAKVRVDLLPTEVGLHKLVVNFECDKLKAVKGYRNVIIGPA
Procedure: Enzyme selectivity . Inactivation of tissue type transglutaminase: Inhibitor solution in DMSO (5 μL) was added to 250 mM Tris-Cl pH 7.5 containing 40 mM CaCl2 and 1 mM EDTA in a final volume of 42 μL. Guinea pig liver TGase (3 μL, 2.5 mg/mL in 5 mM Tris-HCl pH 7.5, 2 mM EDTA) was added and the mixture was incubated for 5 min. at 37° C.
An assay mixture composed of 50 mM Tris-Cl, pH 8.0, 10 mM CaCl2, 1 mM EDTA, 0.1% poly(ethylene glycol) (app. MW=1000) and 20 μM monodansylcadaverine was prepared in a spectrofluorimetric cell in a final volume of 2952 μL. Dimethylcasein (8 μL, 1% in 50 mM sodium phosphate pH 7.5) was added and the mixture was incubated at 37° C. for a few minutes. To assay the residual enzyme activity, 40 μL of the solution containing the enzyme and the inhibitor was transferred to the assay mixture. The covalent incorporation of monodansylcadaverine into casein was monitored by an increase in fluorescence at λexc=360 nm and λem=500 nm, as previously described ((Curtis, C. G.; Lorand, L. Methods Enzymol. 1976, 45, 177-191). To determine uninhibited enzyme activity, DMSO was used in place of inhibitor solution in the above assay. IC50 values were determined by plotting the percent of remaining enzyme activity against logarithm of inhibitor concentration. IC50 is defined here as inhibitor concentration resulting in 50% enzyme inactivation after 5-min incubation of the enzyme with the inhibitor in the absence of the substrate. Second order rate constants for inactivation were determined using method described by Kitz and Wilson (Kitz, R.; Wilson, I. J.Biol.Chem. 1962,237, 3245).

[1] = molecular target: T2, Factor XIIIa (activated FXIII) (Homo sapiens, UniProt P00488); experiment: Inactivation of purified Factor XIIIa (monodansylcadaverine incorporation into dimethylcasein, fluorescence); assay type: biochemical; settings: for kinact/KI: read-out: Second order rate constant for inactivation
T2 construct: purchased Enzyme Research Laboratories, Ltd
T2 sequence (P00488 39-732 limits assumed): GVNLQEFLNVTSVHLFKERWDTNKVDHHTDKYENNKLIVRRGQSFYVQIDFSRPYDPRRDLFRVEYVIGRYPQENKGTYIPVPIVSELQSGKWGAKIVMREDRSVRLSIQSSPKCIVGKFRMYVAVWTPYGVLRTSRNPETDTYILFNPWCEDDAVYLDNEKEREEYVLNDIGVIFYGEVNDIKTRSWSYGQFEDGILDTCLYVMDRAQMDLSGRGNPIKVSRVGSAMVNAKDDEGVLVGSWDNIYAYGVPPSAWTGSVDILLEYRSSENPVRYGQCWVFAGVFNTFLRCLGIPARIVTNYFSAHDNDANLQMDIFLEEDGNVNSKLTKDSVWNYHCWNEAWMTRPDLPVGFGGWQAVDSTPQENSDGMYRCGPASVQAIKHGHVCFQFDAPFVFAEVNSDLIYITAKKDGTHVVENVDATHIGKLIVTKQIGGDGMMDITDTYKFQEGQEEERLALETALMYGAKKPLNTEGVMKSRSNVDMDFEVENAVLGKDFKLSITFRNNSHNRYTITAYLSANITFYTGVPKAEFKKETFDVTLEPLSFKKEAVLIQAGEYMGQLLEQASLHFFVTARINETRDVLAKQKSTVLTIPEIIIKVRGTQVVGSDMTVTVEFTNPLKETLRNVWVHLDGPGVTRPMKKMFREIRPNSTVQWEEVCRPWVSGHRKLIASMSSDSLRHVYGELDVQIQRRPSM
Procedure: FXIII (0.5 mg/mL, Enzyme Research Laboratories, Ltd.) in 50 mM Tris-HCl pH 7.5 containing 100 mM NaCl, 40 mM CaCl2, 1 mM EDTA and 0.1% poly(ethylene glycol) (app. MW=8000) was activated by incubation with 10 NIH units/mL of human thrombin (Calbiochem) at 37° C. for 20 min. Thrombin was quenched with 20 NIH units/mL of hirudin from Leech (Sigma).
Inhibitor solution in DMSO (14 μL) was added to 120 μL of 250 mM Tris-Cl pH 7.5 containing 40 mM CaCl2 and 1 mM EDTA and the solution was incubated at 37° C. for two minutes. Activated FXIII (5 μL, 0.5 mg/mL) was added and the mixture was incubated at 37° C. for 5 min.
An assay mixture composed of 50 mM Tris-Cl pH 8.0, 10 mM CaCl2, 1 mM EDTA, 0.1% poly(ethylene glycol) (app. MW=1000) and 20 μM monodansylcadaverine was prepared in a spectrofluorometric cell in a final volume of 2880 μL. Dimethylcasein (8 μL, 1% in 50 mM sodium phosphate pH 7.5) was added and the solution was incubated at 37° C. for a few minutes. To assay the residual enzyme activity, 120 μL of the solution containing the enzyme and the inhibitor was transferred to the assay mixture. The covalent incorporation of monodansylcadaverine into casein was monitored by an increase in fluorescence at λexc=360 nm and λem=500 nm as previously described (Curtis, C. G.; Lorand, L. Methods Enzymol. 1976, 45, 177-191). To determine uninhibited enzyme activity, DMSO was used in place of inhibitor solution in the above assay. IC50 were determined by plotting the percent of remaining enzyme activity against logarithm of inhibitor concentration. IC50 is defined here as an inhibitor concentration resulting in 50% enzyme inactivation after 5-min incubation of the enzyme with the inhibitor in the absence of the substrate. Second order rate constants for inactivation were determined using method described by Kitz and Wilson (Kitz, R.; Wilson, I. J. Biol. Chem. 1962, 237, 3245).

[2] = values without asterisk, purified FXIIIa, 5-min incubation, read-out: FXIIIa IC50 determined by method in Example 16
[3] = TGAse IC50, Guinea pig liver TGase
[4] = purified Factor XIIIa, method of Kitz and Wilson
[5] = purified activated FXIII, 50% enzyme inactivation after 5-min incubation with inhibitor at 37° C. in the absence of substrate, read-out: FXIIIa (IC50 in μM)

Compound	IC50 [1, 5]	further results
O=C(N1CCc2ccc(S(=O)(=O)NCCCCCCNc3nsc4nccn34)cc2C1)C(F)(F)F		IC50 (Guinea pig liver TGase; read-out: TGAse IC50, Guinea pig liver TGase): 17 µM; IC50 [1, 2]: 11 µM
O=S(=O)(NCCCCCCNc1nsc2nccn12)c1ccccc1C(F)(F)F [2-CF3-Ph / H, N-[6-(imidazo[1,2-d][1,2,4]thiadiazol-3-ylamino)hexyl]-2-trifluoromethylbenzenesulfonamide]		IC50 (Guinea pig liver TGase; [3]): 7.5 µM and 3.8 µM; kinact/KI [1, 4]: 12000 M⁻¹ s⁻¹; IC50 ([1]; values marked *, read-out: FXIIIa IC50, *values calculated from second order rate constant for inactivation): 0.26 µM and 0.18 µM
CN(CCCCCCNS(=O)(=O)c1ccccc1[N+](=O)[O-])c1nsc2nccn12 [2-NO2-Ph / CH3, N-{6-[imidazo[1,2-d][1,2,4]thiadiazol-3-yl(methyl)amino]hexyl}-2-nitrobenzenesulfonamide]		IC50 (Guinea pig liver TGase; [3]): 6.2 µM
O=S(=O)(NCCCCCCNc1nsc2nccn12)c1ccc(-c2ccccc2)cc1 [4-Ph-Ph, N-[6-(imidazo[1,2-d][1,2,4]thiadiazol-3-ylamino)hexyl]-4-phenylbenzenesulfonamide]	1.3 µM	
Cc1ccc(S(=O)(=O)N[C@@H](CCCCNc2nsc3nccn23)C(=O)N2CCN(Cc3ccccc3)CC2)cc1 [4-benzyl-{N^ε-imidazo[1,2-d][1,2,4]thiadiazol-3-yl-N^α-[(4-methylphenyl)sulfonyl]lysyl}piperazine]	6.5 µM	
O=C(O)CCCCCN(CCCCCCNc1nsc2nccn12)S(=O)(=O)c1ccc(F)cc1F [5 / OH / 2-F-4-F-Ph, 6-{[(2,4-difluorophenyl)sulfonyl][6-(imidazo[1,2-d][1,2,4]thiadiazol-3-ylamino)hexyl]amino}hexanoic acid]	6.8 µM	
CN(CCCCCCN(C)S(=O)(=O)c1ccccc1[N+](=O)[O-])c1nsc2nccn12 [CH3 / CH3 / 2-NO2-Ph, N-{6-[imidazo[1,2-d][1,2,4]thiadiazol-3-yl(methyl)amino]hexyl}-N-methyl-2-nitrobenzenesulfonamide]	0.6 µM	
CN(CCCCCCNc1nsc2nccn12)S(=O)(=O)c1cccc2ccccc12 [CH3 / H / 1-naphthyl, N-[6-(imidazo[1,2-d][1,2,4]thiadiazol-3-ylamino)hexyl]-N-methylnaphthalene-1-sulfonamide]	2.4 µM	
CN(CCCCCCNc1nsc2nccn12)S(=O)(=O)c1ccccc1[N+](=O)[O-] [CH3 / H / 2-NO2-Ph, N-[6-(Imidazo[1,2-d][1,2,4]thiadiazol-3-ylamino)hexyl]-N-methyl-2-nitro benzene sulfonamide]	1.3 µM	
COC(=O)CN(CCCCCCNS(=O)(=O)c1ccccc1[N+](=O)[O-])c1nsc2nccn12 [H / CH2COOMe / 2-NO2-Ph, methyl N-imidazo[1,2-d][1,2,4]thiadiazol-3-yl-N-(6-{[(2-nitrophenyl)sulfonyl]amino}hexyl)glycinate]	0.88 µM	
Cc1ccc(S(=O)(=O)N[C@@H](CCCCNc2nsc3nccn23)C(=O)NCc2ccc(F)cc2)cc1 [N-(4-fluorobenzyl)-N^ε-imidazo[1,2-d][1,2,4]thiadiazol-3-yl-N^α-[(4-methylphenyl)sulfonyl]lysinamide]	6.7 µM	
O=[N+]([O-])c1ccc(NCCCCCCNc2nsc3nccn23)c([N+](=O)[O-])c1 [N^1-(2,4-dinitrophenyl)-N^6-imidazo[1,2-d][1,2,4]thiadiazol-3-ylhexane-1,6-diamine]		kinact/KI [1, 4]: 8900 M⁻¹ s⁻¹
O=S(=O)(NCCCCCCNc1nsc2nccn12)c1cccc2cccnc12 [Quinoline-8-, N-[6-(imidazo[1,2-d][1,2,4]thiadiazol-3-ylamino)hexyl]quinoline-8-sulfonamide]	2.6 µM	
Cc1ccc(S(=O)(=O)NC(CCCCNc2nsc3nccn23)C(N)=O)cc1 (centres unmarked) [—CH(CONH2)—NH— / 4-Me-Ph]	9.1 µM	
Cc1ccc(S(=O)(=O)N[C@@H](CCCCNc2nsc3nccn23)C(=O)O)cc1 [—CH(COOH)—NH— / 4-Me-Ph, N^ε-imidazo[1,2-d][1,2,4]thiadiazol-3-yl-N^α-[(4-methylphenyl)sulfonyl]lysine]	6.7 µM	
COC(=O)[C@H](CCCCNc1nsc2nccn12)NS(=O)(=O)c1ccc(C)cc1 [—CH(COOMe)—NH— / 4-Me-Ph, methyl N^ε-imidazo[1,2-d][1,2,4]thiadiazol-3-yl-N^α-[(4-methylphenyl)sulfonyl]lysinate]	7 µM	
N-imidazo[1,2-d][1,2,4]thiadiazol-3-yl-N-(6-{[(2-nitrophenyl)sulfonyl]amino}hexyl)glycinamide [H / CH2CONH2 / 2-NO2-Ph]	0.42 µM	IC50 (Guinea pig liver TGase; Guinea pig liver TGase, read-out: TGAse IC50): 32 µM; Second order rate constant for inactivation [1, 4]: 6700 M⁻¹ s⁻¹; IC50 [1, 2]: 0.42 µM
